Results: patent publication US5821240A, “Pyrimido[5,4]-dipyrimidines, pharmaceuticals containing them, their use and processes for the preparation thereof” (Dr. Karl Thomae GmbH, priority 1996, dated 1998)

Legend:
F/L-HERc cells = experiment: Inhibition of IL-3-dependent proliferation of F/L-HERc cells; type: cell-based; settings: Mus musculus, murine IL-3, 37° C., 48 hours
Source text: (§1) In this case, an interleukin-3 (IL-3)-dependent cell line of murine origin was used and was genetically modified in such a way that it expresses functional human EGF-R. Proliferation of these cells, which are called F/L-HERc, can therefore be stimulated either by murine IL-3 or by EGF (see von Ruden, T. et al. in EMBO J. 7, 2749-2756 (1988) and Pierce, J. H. et al. in Science 239, […] (1988)).
(§2) The starting material for the F/L-HERc cells was the cell line FDC-P1 whose preparation has been described by Dexter, T. M. et al. in J. Exp. Med. 152, 1036-1047 (1980). However, it is also possible as an alternative to use other growth factor-dependent cells (see, for example, Pierce, J. H. et al. in Science 239, 628-631 (1988), Shibuya, H. et al. in Cell 70, 57-67 (1992) and Alexander, W. S. et al. in EMBO J. 10, 3683-3691 (1991)). Recombinant retroviruses as described in von Ruden, T. et al., EMBO J. 7, 2749-2756 (1988) Were used for expression of the human EGF-R cDNA (see Ullrich, A. et al. in Nature 309, 418-425 (1984)), with the difference that the retroviral vector LXSN (see Miller, A. D. et al. in BioTechniques 7, 980-990 (1989)) was employed for expression of the EGF-R cDNA, and the line GP+E86 (see Markowitz, D. et al. in J. Virol. 62, 1120-1124 (1988)) was used as packaging cell.
(§3) F/L-HERc cells were cultivated in RPMI/1640 medium (BioWhittaker), supplemented with 10% fetal calf serum (FCS, Boehringer Mannheim), 2 mM glutamine (BioWhittaker), standard antibiotics and 20 ng/ml human EGF (Promega), at 37° C. and 5% CO2. To investigate the inhibitor activity of the compounds according to the invention, 1.5×10^4 cells were cultivated in the above medium (200 μl) per well in triplicates in 96-well plates, stimulating proliferation of the cells either with EGF (20 ng/ml) or with murine IL-3. The source used for IL-3 was culture supernatants from the cell line X63/0 mIL-3 (see Karasuyama, H. et al. in Eur. J. Immunol. 18, 97-104 (1988)). The compounds according to the invention were dissolved in 100% dimethyl sulphoxide (DMSO) and added in various dilutions to the cultures, with the maximum DMSO concentration being 1%. The cultures were incubated at 37° C. for 48 hours.
(§4) To determine the inhibitory activity of the compounds according to the invention, the relative cell count was measured in O.D. units using the Cell Titre 96™ AQueous Non-Radioactive Cell Proliferation Assay (Promega). The relative cell count was calculated as a percent of the control (F/L-HERc cells without inhibitor), and the concentration of active substance which inhibits the proliferation of the cells by 50% (IC50) was inferred.

[1] = tested on: human tumour cell line KB; experiment: Inhibition of EGF/TGF-alpha-stimulated KB cell proliferation ([3H]-thymidine incorporation); type: cell-based; settings: TGF-alpha 10 ng/ml or EGF 20 ng/ml, serum-free, 60 hours then [3H]-thymidine 16-18 h
Method: KB cells (purchased from ATCC) were passaged in DMEM (BioWhittaker) in the presence of 10% FCS (Boehringer Mannheim), 50 μM beta-mercaptoethanol and standard antibiotics. The EGF-induced DNA synthesis was determined by measuring the incorporation of radioactively labelled thymidine as indicator of EGF/TGF-alpha-stimulated cell proliferation. To do this, the cells were washed twice and 1500 cells per well were plated out in a 96-well plate in 200 μl of IMDM (BioWhittaker) without serum in the presence of 50 μM beta-mercaptoethanol, standard antibiotics, TGF-alpha [10 ng/ml] or EGF [20 ng/ml] and of various concentrations of the substances according to the invention (triplicates, maximum DMSO concentration 1%, see proliferation t t with F/L-HERc cells). After 60 hours, [^3 H]-thymidine (0.1 μCi in 10 μl) was added for about 16-18 h.

[2] = tested on: F/L-HERc cells expressing human EGF-R; experiment: Inhibition of EGF-dependent proliferation of F/L-HERc cells; type: cell-based, murine cell line; human EGF-R; settings: EGF 20 ng/ml, 37° C., 48 hours
Source text: as §1, §2, §3, §4

Structure (SMILES): Fc1ccc(Nc2ncnc3cnc(NC4CN5CCC4CC5)nc23)cc1Cl (racemic) [1(4), (3'RS)-4-[(3-Chloro-4-fluorophenyl)amino]-6-[(3'-quinuclidinyl)amino]pyrimido[5,4-d]pyrimidine]
- IC50 (F/L-HERc cells): > 10000 nM
- IC50 [1]: 100 to 1000 nM
- IC50 [2]: 15 nM

Structure (SMILES): NCC1CCN(c2ncc3ncnc(Nc4ccc(F)c(Cl)c4)c3n2)CC1 [1(7), 4-[(3-Chloro-4-fluorophenyl)amino]-6-[4-(aminomethyl)-1-piperidinyl]pyrimido[5,4-d]pyrimidine]
- IC50 (F/L-HERc cells): > 1000 nM
- IC50 [1]: 100 to 1000 nM
- IC50 [2]: 8 nM

Structure (SMILES): COC(=O)N1CCC(Nc2ncc3ncnc(Nc4ccc(F)c(Cl)c4)c3n2)CC1 [1(8), 4-[(3-Chloro-4-fluorophenyl)amino]-6-[1-methoxycarbonyl-4-piperidinylamino]pyrimido[5,4-d]pyrimidine]
- IC50 (F/L-HERc cells): > 10000 nM
- IC50 [1]: 100 to 1000 nM
- IC50 [2]: 3 nM

Structure (SMILES): Nc1c(Cl)cc(Nc2ncnc3cnc(N[C@H]4CC[C@H](C(=O)O)CC4)nc23)cc1Cl [1(16), 4-[(4-Amino-3,5-dichlorophenyl)amino]-6-[(trans-4-carboxycyclohexyl)amino]pyrimido[5,4-d]pyrimidine]
- IC50 (F/L-HERc cells): > 1000 nM
- IC50 [1]: 100 to 1000 nM
- IC50 [2]: 20 nM

Structure (SMILES): Nc1c(Cl)cc(Nc2ncnc3cnc(N[C@H]4CC[C@H](C(=O)N5CCOCC5)CC4)nc23)cc1Cl [1(17), 4-[(4-Amino-3,5-dichlorophenyl)amino]-6-[trans-4-(morpholinocarbonyl)cyclohexylamino]pyrimido[5,4-d]pyrimidine]
- IC50 (F/L-HERc cells): > 1000 nM
- IC50 [1]: 100 to 1000 nM
- IC50 [2]: 1 nM

Structure (SMILES): Nc1c(Cl)cc(Nc2ncnc3cnc(N[C@H]4CC[C@H](C(=O)N5CCCC5)CC4)nc23)cc1Cl [1(18), 4-[(4-Amino-3,5-dichlorophenyl)amino]-6-[trans-4-(pyrrolidinocarbonyl)cyclohexylamino]pyrimido[5,4-d]pyrimidine]
- IC50 (F/L-HERc cells): > 1000 nM
- IC50 [1]: 100 to 1000 nM
- IC50 [2]: 3 nM

Structure (SMILES): Fc1ccc(Nc2ncnc3cnc(N4CCC(C5CCNCC5)CC4)nc23)cc1Cl [1(19), 4-[(3-Chloro-4-fluorophenyl)amino]-6-[4-(4-piperidinyl)-1-piperidinyl]pyrimido[5,4-d]pyrimidine]
- IC50 (F/L-HERc cells): > 1000 nM
- IC50 [1]: 100 to 1000 nM
- IC50 [2]: 83 nM

Structure (SMILES): OCc1cccc(Nc2ncnc3cnc(N[C@H]4CC[C@H](O)CC4)nc23)c1 [1(47), 4-[(3-Hydroxymethylphenyl)amino]-6-[trans-4-hydroxycyclohexylamino]pyrimido[5,4-d]pyrimidine]
- IC50 (F/L-HERc cells): > 1000 nM
- IC50 [2]: > 100 nM

Structure (SMILES): OC1CCN(c2ncc3ncnc(Nc4ccc(F)c(Cl)c4)c3n2)CC1 [1(48), 4-[(3-Chloro-4-fluorophenyl)amino]-6-[4-hydroxy-1-piperidinyl]pyrimido[5,4-d]pyrimidine]
- IC50 (F/L-HERc cells): > 1000 nM
- IC50 [2]: 36 nM

Structure (SMILES): Fc1ccc(Nc2ncnc3cnc(N4CCCCC4)nc23)cc1Cl [1(49), 4-[(3-chloro-4-fluorohenyl)amino]-6-[1-piperidinyl]pyrimido[5,4-d]pyrimidine]
- IC50 (F/L-HERc cells): > 1000 nM
- IC50 [2]: > 1000 nM

Structure (SMILES): N#CN1CCC(Nc2ncc3ncnc(Nc4ccc(F)c(Cl)c4)c3n2)CC1 [1(50), 4-[(3-Chloro-4-fluorophenyl)amino]-6-[(1-cyano-4-piperidinyl)amino]pyrimido[5,4-d]pyrimidine]
- IC50 (F/L-HERc cells): > 1000 nM
- IC50 [2]: 3 nM

Structure (SMILES): CN1CCC(CNc2ncc3ncnc(Nc4ccc(F)c(Cl)c4)c3n2)CC1 [1(51), 4-[(3-Chloro-4-fluorophenyl)amino]-6-[(1-methyl-4-piperidinyl)methylamino]pyrimido[5,4-d]pyrimidine]
- IC50 (F/L-HERc cells): > 1000 nM
- IC50 [2]: 9 nM

Structure (SMILES): O=C(N1CCOCC1)N1CCN(CCNc2ncc3ncnc(Nc4ccc(F)c(Cl)c4)c3n2)CC1 [1(52), 4-[(3-Chloro-4-fluorophenyl)amino]-6-[2-(4-(morpholinocarbonyl)-1-piperazinyl)ethylamino]pyrimido[5,4-d]pyrimidine]
- IC50 (F/L-HERc cells): > 1000 nM
- IC50 [2]: 10 nM

Structure (SMILES): Nc1ncc2ncnc(Nc3ccc(F)c(Cl)c3)c2n1 [1(53), 4-[(3-Chloro-4-fluorophenyl)amino]-6-aminopyrimido-[5,4-d]pyrimidine]
- IC50 (F/L-HERc cells): > 1000 nM
- IC50 [2]: > 100 nM

Structure (SMILES): NCCCCCNc1ncc2ncnc(Nc3ccc(F)c(Cl)c3)c2n1 [1(54), 4-[(3-Chloro-4-fluorophenyl)amino]-6-[5-aminopentylamino]pyrimido[5,4-d]pyrimidine]
- IC50 (F/L-HERc cells): > 1000 nM
- IC50 [2]: 10 nM

Structure (SMILES): Fc1ccc(Nc2ncnc3cnc(N4CCCCCC4)nc23)cc1Cl [1(55), 4-[(3-Chloro-4-fluorophenyl)amino]-6-[1-azacycloheptyl]pyrimido[5,4-d]pyrimidine]
- IC50 (F/L-HERc cells): > 1000 nM
- IC50 [2]: 40 nM

Structure (SMILES): NC1CCCN(c2ncc3ncnc(Nc4ccc(F)c(Cl)c4)c3n2)CC1 (centres unmarked) [1(56), 4-[(3-Chloro-4-fluorophenyl)amino]-6-[4-amino-1-azacycloheptyl]pyrimido[5,4-d]pyrimidine]
- IC50 (F/L-HERc cells): > 1000 nM
- IC50 [2]: 40 nM

Structure (SMILES): CC(C)(C)OC(=O)N1CCCC(Nc2ncc3ncnc(Nc4ccc(F)c(Cl)c4)c3n2)CC1 (centres unmarked) [1(57), 4-[(3-chloro-4-fluorophenyl)amino]-6-[1-tert-butyloxy-carbonyl-4-(azacycloheptyl)amino]pyrimido[5,4-d]pyrimidine]
- IC50 (F/L-HERc cells): > 10000 nM
- IC50 [2]: 88 nM

Structure (SMILES): Fc1ccc(Nc2ncnc3cnc(NC4CCCNCC4)nc23)cc1Cl (centres unmarked) [1(58), 4-[(3-Chloro-4-fluorophenyl)amino]-6-[4-(azacycloheptyl)amino]pyrimido[5,4-d]pyrimidine]
- IC50 (F/L-HERc cells): > 1000 nM
- IC50 [2]: 4 nM

Structure (SMILES): NC[C@H]1CC[C@H](Nc2ncc3ncnc(Nc4ccc(F)c(Cl)c4)c3n2)CC1 [1(59)]
- IC50 (F/L-HERc cells): > 1000 nM
- IC50 [2]: 1 nM

Structure (SMILES): O=C(N[C@H]1CC[C@H](CNc2ncc3ncnc(Nc4ccc(F)c(Cl)c4)c3n2)CC1)OCc1ccccc1 [1(60), 4-[(3-Chloro-4-fluorophenyl)amino]-6-[trans-4-(benzyloxycarbonylamino)cyclohexylmethylamino]pyrimido[5,4-d]pyrimidine]
- IC50 (F/L-HERc cells): > 10000 nM
- IC50 [2]: 120 nM

Structure (SMILES): NCC1CCCN(c2ncc3ncnc(Nc4ccc(F)c(Cl)c4)c3n2)C1 (centres unmarked) [1(61), 4-[(3-Chloro-4-fluorophenyl)amino]-6-[3-aminomethyl-1-piperidinyl]pyrimido[5,4-d]pyrimidine]
- IC50 (F/L-HERc cells): > 1000 nM
- IC50 [2]: 50 nM

Structure (SMILES): Nc1cc(Cl)c(Nc2ncnc3cnc(N[C@H]4CC[C@H](O)CC4)nc23)cc1Cl [1(62), 4-[(4-Amino-2,5-dichlorophenyl)amino]-6-[trans-4-hydroxycyclohexylamino]pyrimido[5,4-d]pyrimidine]
- IC50 (F/L-HERc cells): > 10000 nM
- IC50 [2]: 4 nM

Structure (SMILES): O[C@H]1CC[C@H](Nc2ncc3ncnc(Nc4ccc(-c5ccccc5)cc4)c3n2)CC1 [1(63), 4-[4-Biphenylylamino]-6-[trans-4-hydroxycyclohexylamino]pyrimido[5,4-d]pyrimidine]
- IC50 (F/L-HERc cells): > 10000 nM
- IC50 [2]: > 10000 nM

Structure (SMILES): O[C@H]1CC[C@H](Nc2ncc3ncnc(Nc4cccc(Oc5ccccc5)c4)c3n2)CC1 [1(64)]
- IC50 (F/L-HERc cells): > 10000 nM
- IC50 [2]: 150 nM

Structure (SMILES): COC(=O)[C@H]1CC[C@H](Nc2ncc3ncnc(Nc4ccc(F)c(Cl)c4)c3n2)CC1 [Example 1, 4-[(3-Chloro-4-fluorophenyl)amino]-6-[(trans-4-methoxycarbonylcyclohexyl)amino]pyrimido[5,4-d]pyrimidine]
- IC50 (F/L-HERc cells): > 10000 nM
- IC50 [2]: 200 nM
